Experimental data from paper PMC12386809, “Phenanthrene Monomers and Dimers from Juncus tenuis with Antiproliferative Activity and Synergistic Effect with Doxorubicin Against Human Colon Cancer Cell Lines” (International Journal of Molecular Sciences, 2025).
Read-outs that look alike come from different tables or passages of the source.

Key:
[1] = test system: COLO 320/MDR-LRP multidrug-resistant human colonic adenocarcinoma cells; test: MTT antiproliferative assay, COLO 320; format: cell-based; settings: COLO 320 (multidrug-resistant), read-out: IC50 (µM) ± SD COLO 320
Procedure: (§1) The antiproliferative effects of the isolated phenanthrenes (compounds 1–19) were evaluated using human cancer cell lines, including doxorubicin-sensitive colonic adenocarcinoma COLO 205 and multidrug-resistant colonic adenocarcinoma COLO 320/MDR-LRP (which expresses P-glycoprotein [MDR1] and LRP), as well as non-cancerous human lung fibroblast CCD-19Lu cells. CCD-19Lu was chosen because it is a well-characterized, non-tumorigenic cell line commonly used to assess general cytotoxicity. Moreover, data from the literature support the use of lung fibroblast cell lines—including CCD-19Lu—as normal controls in studies involving colon cancer cells such as Colo 205 and Colo 320 [33]. The thiazolyl blue tetrazolium bromide (MTT) assay was employed to determine the concentration of each compound required to inhibit 50% of the cell viability (IC50), as summarized in Table 3.
(§2) The human colon adenocarcinoma cells—COLO 205 (CCL-222, doxorubicin-sensitive) and COLO 320/MDR-LRP (ATCC-CCL-220.1, multidrug-resistant, expressing P-gp)—were cultured in RPMI 1640 medium supplemented with 10% heat-inactivated fetal bovine serum, 2 mM of L-glutamine, 1 mM of sodium pyruvate, and 100 mM of HEPES. The non-cancerous human lung fibroblast cell line CCD-19Lu was maintained in Eagle’s Minimal Essential Medium (EMEM; containing 4.5 g/L of glucose) supplemented with a non-essential amino acid mixture, selected vitamins, and 10% heat-inactivated fetal bovine serum. All of the cell lines were detached using 0.25% trypsin and 0.02% EDTA for 5 min at 37 °C. The cell lines were obtained from LGC Promochem (Teddington, England).
(§3) Human colonic adenocarcinoma cell lines—doxorubicin-sensitive COLO 205 and multidrug-resistant COLO 320—as well as the non-cancerous human lung fibroblast cell line CCD-19Lu were used to evaluate the effects of the test compounds on cell proliferation. The assays were conducted in 96-well flat-bottomed microtiter plates. Stock solutions of the compounds were prepared in dimethyl sulfoxide (DMSO), with the final DMSO concentration kept below 1% in all samples. The compounds were diluted in 100 µL of the appropriate culture medium. Adherent cells were cultured in EMEM supplemented with 10% heat-inactivated fetal bovine serum and seeded into 96-well plates at a density of 6 × 10^3 cells per 100 µL per well. The cells were allowed to adhere for 24 h at 37 °C in a humidified incubator with 5% CO2. After incubation, the medium was removed and replaced with 100 µL of fresh medium. Serial dilutions of the compounds were prepared in separate plates and added to the cells, starting from a concentration of 100 µM with twofold serial dilutions (final concentration range: 100–0.19 µM). The cells were then incubated for 72 h at 37 °C. At the end of the incubation period, 20 µL of thiazolyl blue tetrazolium bromide (MTT) solution (5 mg/mL, Sigma) was added to each well. After 4 h of incubation at 37 °C, 100 µL of 10% sodium dodecyl sulfate (SDS) in 0.01 M HCl was added to solubilize the formazan crystals, and the plates were incubated overnight at 37 °C. Cell viability was assessed by measuring the optical density (OD) at 540/630 nm using a Multiscan EX ELISA reader (Thermo Labsystems, Cheshire, WA, USA).
(§4) The inhibitory concentration that reduced cell growth by 50% (IC50) was determined from the dose–response curves. The percent inhibition was calculated using the formula100 − ((OD_sample − OD_medium control)/(OD_cell control − OD_medium control)) × 100
(§5) Dose–response curves were generated by plotting the percent inhibition against the logarithm of the compound concentrations and fitted using Prism5 software (Version 6, GraphPad Software Inc., San Diego, CA, USA). The IC50 values were derived from four independent experiments conducted in parallel for each cell line and are reported as the mean values.

[2] = test system: COLO 205 (doxorubicin-sensitive) human colonic adenocarcinoma cells; test: MTT antiproliferative assay, COLO 205; format: cell-based; settings: read-out: IC50 (µM) ± SD COLO 205
Procedure: as §1, §2, §3, §4, §5

[3] = test system: CCD-19Lu non-cancerous human lung fibroblast cells; test: MTT antiproliferative assay, CCD-19Lu; format: cell-based; settings: 72 h, CCD-19Lu non-tumorigenic fibroblasts, read-out: IC50 (µM) ± SD CCD-19Lu
Procedure: as §1, §2, §3, §4, §5

[4] = test system: multidrug-resistant COLO 320 cells; test: Drug combination assay with doxorubicin (Chou-Talalay, MTT); format: cell-based, human; settings: for CI at ED50 (combination index): combination with doxorubicin, COLO 320, 72 h, Chou-Talalay; for Interaction: interaction with doxorubicin in COLO 320, class from CI
Procedure: One promising approach involves the discovery of new bioactive natural products. To explore this, a chemosensitivity assay was conducted to examine the in vitro interactions between the isolated compounds and the antineoplastic agent doxorubicin, a substrate of P-glycoprotein (P-gp). A combination chemotherapy model was applied using human COLO 320 colon carcinoma cells. The combination index (CI), calculated according to the Chou–Talalay method, was used to evaluate drug–drug interactions, classifying them as synergistic (CI < 1), additive (CI = 1), or antagonistic (CI > 1) (Table 4).
The multidrug-resistant COLO 320 cell line was used to perform the drug combination assay. Doxorubicin (2 mg/mL, Teva Pharmaceuticals, Budapest, Hungary) was serially diluted horizontally, starting with 8.6 µM. The resistance modifier was subsequently diluted vertically, with the starting concentration determined based on the IC50 value. Doxorubicin was diluted horizontally in 100 µL, while the resistance modifiers were diluted vertically in 50 µL in the microtiter plate. The compounds and doxorubicin were prepared as separate dilutions. The cells were seeded at a density of 6 × 10^3 cells per well into 100 µL of medium and incubated for 24 h at 37 °C in a 5% CO2 atmosphere prior to treatment. After this period, the culture medium was removed, and 50 µL of fresh medium was added to each well, followed by the addition of 50 µL of the diluted compounds, resulting in a final volume of 200 µL per well. The plates were then incubated for 72 h at 37 °C under 5% CO2. The cell viability was assessed at the end of incubation using the MTT assay, as described previously. Drug interactions were analyzed using CompuSyn software (Version 1.00).
The dose–response curves for individual agents and their combinations were fitted to a linear model based on the median-effect equation to calculate the median effective dose (IC50) and the slope (m). The quality of the fit was evaluated using the linear correlation coefficient (r), and only data with r > 0.90 are reported. The extent of drug interaction was quantified using the combination index (CI), where CI ≈ 1 indicated an additive effect, CI < 1 signified synergy, and CI > 1 denoted antagonism.

[5] = test system: HT22 cells (mouse hippocampal neuroblastoma cell line); set-up: method as in doi:10.1007/s11101-018-9561-5, PMID 25794817; settings: 100 µM, 24 h; cited from earlier work
HeLa cells = test system: HeLa cells; set-up: method as in PMID 33348712; settings: cited from earlier work

| IC50 ([1]; Homo sapiens, COLO 320, 72 h) [µM] | IC50 ([2]; 72 h) [µM] | IC50 ([2]; Homo sapiens, COLO 205, 72 h) [µM] | SMILES | IC50 [3] [µM] | CI at ED50 (combination index) [4] | Interaction [4] | decrease in MTT reduction [5] [%] | IC50 ([1]; Homo sapiens, 72 h) [µM] | IC50 ([2]; Homo sapiens, 72 h) [µM] | IC50 ([1]; 72 h) [µM] | IC50 (HeLa cells) [µM] |
| --- | --- | --- | --- | --- | --- | --- | --- | --- | --- | --- | --- |
| 17.3 ± 0.87 | 10.9 ± 0.51 | 10.9 | C=Cc1cc(O)cc2c1-c1cc(-c3cc4c(c(C)c3O)CCc3cc(O)cc(C=C)c3-4)c(O)c(C)c1CC2 [Compound 19, effususin A] | 18.8 ± 0.06 | – | – | – | – | – | – | – |
| > 100 | – | > 100 | C=Cc1cc(O)cc2ccc3c(c12)C=CC(=O)C3(C)O (centres unmarked) [Compound 1, Tenuin A] | > 100 | – | – | – | – | – | – | – |
| 47.6 ± 1.01 | – | 45.4 ± 2.16 | C=Cc1cc(C(=O)O)cc2c1-c1ccc(O)c(C)c1CC2 [Compound 15] | > 100 | 1.927 | antagonism (1.45 < CI < 3.3, antagonism) | – | – | – | – | – |
| – | – | – | C=Cc1c(C)c(O)cc2c1CCc1c-2ccc(O)c1C [juncuenin B, reference compound] | – | – | – | 13.6 | – | – | – | – |
| – | – | – | C=Cc1cc(O)cc2ccc3c(C)c(O)ccc3c12 [Compound 6, dehydroeffusol] | 58.17 ± 0.51 | 0.266 | – | – | 35.6 ± 3.89 | 36.7 ± 2.29 | – | – |
| – | – | – | C=CC1=C(C)C(=O)C=C2c3ccc(O)c(C)c3CCC21O (centres unmarked) [juncuenin D, reference compound] | – | – | – | 23.7 | – | – | – | – |
| – | – | – | C=Cc1c(C)c(O)cc2ccc3c(C)c(O)ccc3c12 [Compound 7, dehydrojuncusol] | 42.04 ± 0.39 | 0.117 | – | – | 45.3 ± 2.78 | 28.16 ± 0.27 | – | – |
| 35.1 ± 1.1 | – | 43.2 ± 3.82 | C=Cc1cc(O)c(C)c2c1-c1ccc(O)c(C)c1CC2 [Compound 17, 2,7-dihydroxy-1,8-dimethyl-5-vinyl-9,10-dihydrophenanthrene] | 64.7 ± 3.36 | 0.670 | synergism (0.3 < CI < 0.7, synergism) | – | – | – | – | – |
| 31.5 ± 2.65 | – | 50.2 ± 0.74 | C=Cc1c(CO)ccc2c1CCc1c-2ccc(O)c1C [Compound 18] | 70.8 ± 3.25 | 0.189 | – | – | – | – | – | – |
| 25.5 ± 2.05 | – | 34.73 ± 0.1 | C=Cc1cc(O)cc2c1-c1ccc(OC)c(C)c1CC2 [Compound 12] | 28.7 ± 1.11 | 1.347 | moderate antagonism | – | – | – | – | – |
| 39.58 ± 0.27 | – | 57.2 ± 3.98 | C=Cc1cc(C=O)cc2c1-c1ccc(O)c(C)c1CC2 [Compound 14] | 66.4 ± 1.58 | 0.219 | – | – | – | – | – | – |
| 1.72 ± 0.5 | – | 0.53 ± 0.05 | COc1cccc2c1C(=O)c1c(O)c3c(c(O)c1C2=O)C[C@@](O)(C(=O)CO)C[C@@H]3O[C@H]1C[C@H](N)[C@H](O)[C@H](C)O1 [doxorubicin] | 1.03 ± 0.18 | – | – | – | – | – | – | – |
| 12 ± 1.58 | 11.6 ± 0.22 | 11.6 | C=Cc1cc(O)cc2c1-c1cc(-c3c(O)cc4c(c3C=C)-c3ccc(O)c(C)c3CC4)c(O)c(C)c1CC2 [Compound 5, 1,1′-dimethyl-5,5′-divinyl-9,9′,10,10′-tetrahydro-[6,3′-biphenanthrene]-2,2′,7,7′-tetraol] | 13.8 ± 0.82 | 0.433 | synergism (0.3 < CI < 0.7, synergism) | – | – | – | – | – |
| 35.2 ± 4.68 | – | 37 ± 3.28 | C=Cc1cc(CO)cc2c1-c1ccc(O)c(C)c1CC2 [Compound 13] | 69.3 ± 1.77 | 0.163 | – | – | – | – | – | – |
| > 100 | – | > 100 | C=Cc1cc(O)c(CO)c2c1-c1ccc(O)c(C)c1CC2 [Compound 3, 2,7-dihydroxy-8-hydroxymethyl-1-methyl-5-vinyl-9,10-dihydrophenanthrene] | 96.8 ± 1.79 | – | – | – | – | – | – | – |
| 19.2 ± 0.32 | – | 35.8 ± 2.7 | C=Cc1c(C)c(O)cc2c1-c1ccc(OC)c(C)c1CC2 [Compound 16, compressin A] | 28 ± 2.73 | 2.312 | antagonism (1.45 < CI < 3.3, antagonism) | – | – | – | – | – |
| 15.7 ± 2.2 | – | 7.6 ± 0.13 | C=Cc1cc(O)cc2c1-c1cc(-c3cc4c(c(C)c3O)CCc3cc(O)cc(C(C)OC)c3-4)c(O)c(C)c1CC2 (centres unmarked) [Compound 4, tenuin D] | 9.93 ± 0.84 | 0.669 | synergism (0.3 < CI < 0.7, synergism) | – | – | – | – | – |
| 49.7 | 52.7 ± 1.85 | 52.7 | C=Cc1cc(O)cc2c1-c1ccc(O)c(C)c1CC2 [Compound 10, effusol] | 96 ± 2.66 | 1.123 | slight antagonism | 9.9 | – | – | 49.7 ± 2.12 | 2.3 |

| SMILES | IC50 ([1]; Homo sapiens, COLO 320, 72 h) [µM] | IC50 ([2]; 72 h) [µM] | IC50 ([2]; Homo sapiens, COLO 205, 72 h) [µM] | IC50 [3] [µM] | CI at ED50 (combination index) [4] | Interaction [4] | decrease in MTT reduction [5] [%] | IC50 ([1]; Homo sapiens, 72 h) [µM] | IC50 ([2]; Homo sapiens, 72 h) [µM] | IC50 ([1]; 72 h) [µM] | IC50 (HeLa cells) [µM] |
| --- | --- | --- | --- | --- | --- | --- | --- | --- | --- | --- | --- |
| C=Cc1c(CO)ccc2c1ccc1c(C)c(O)ccc12 [Compound 9] | 42.6 ± 2.98 | – | > 100 | 75.3 ± 2.59 | 1.427 | moderate antagonism | – | – | – | – | – |
| C=Cc1c(C)c(O)cc2c1ccc1c(C)c(O)ccc12 [Compound 8, dehydrojuncuenin B] | 17.9 ± 1.59 | – | 20.7 ± 0.47 | 22.8 ± 0.55 | 2.126 | antagonism (1.45 < CI < 3.3, antagonism) | 8.4 | – | – | – | – |
| C=Cc1cc2c(ccc3c(C)c(O)ccc32)cc1CO [Compound 2, tenuin B] | 38.3 | 48.4 ± 1.03 | 48.4 | 96.08 ± 0.82 | – | very strong synergism (CI < 0.1 indicates very strong synergism) | – | – | – | 38.3 ± 1.84 | – |
